The values that follow come from patent US7811604B1, “Non-effervescent, orally disintegrating solid pharmaceutical dosage forms comprising clozapine and methods of making and using the same” (Barr Laboratories, Inc., priority 2005, dated 2010).

Where a SMILES comes first, the peptide text is derived from it.

The nature of data set [1]: Compaction index of excipients. The class given is physicochemical. To be noted: force to fracture a solid mass prepared by compaction of 500 mg of powder under 1000 lbs pressure, 16/32″ die, flat face punches. The text has this:
In some embodiments, the concentration of the non-polymeric water-soluble carrier, disintegrant, and water-insoluble polymer can be selected to optimize the physical integrity of the dosage forms of the present invention (i.e., to minimize the friability of the dosage forms of the present invention). Not being bound by any particular theory, the durability, robustness, and/or friability of the compressed dosage forms of the present invention can be estimated using the compaction index of the excipients used to prepare the dosage forms. As used herein, “compaction index” refers to the force in kiloponds (kp) required to fracture a solid mass prepared by compaction of 500 mg of powder under 1000 lbs pressure using a 16/32″ die and flat face punches. To obtain dosage forms having both low friability and low hardness, a mixture used to prepare the dosage forms can have a compaction index of at least about 5 kp/500 mg/1000 lbs. Not being bound by any particular theory, the compaction index can be used as an indicator of particle interactions in a compressed solid dosage form. For example, the compression of a dry mixture usually has a significant effect on the inter-particle interactions within the mixture, and can involve combinations of • (i) closer contact between particles and the exclusion of air; • (ii) alignment and interlocking of particles; • (iii) the development of stresses and shearing forces that result in fracture and the generation of smaller particles; • (iv) elastic and plastic deformations of particles that can change particle shape; and • (v) chemical bonding between adjacent particles, especially during long-term storage.
Depending on the properties of the excipients comprising the mixture, powdered mixtures can undergo elastic, plastic, or visco-elastic deformation, or brittle fracture, when placed under compressive force. After compression, a compressed dosage form tends to undergo elastic recovery, visco-elastic recovery or brittle fracture. […]

Data set [2] can be described thus: Particle size and particle size distribution of ingredients. The class given is physicochemical. The settings on record: for D50: median particle size of ingredient used for Dosage Form A; for D10 / D90: particle size distribution of ingredient used for Dosage Form A; for VMD: volume mean diameter D[4,3] of ingredient used for Dosage Form A. The text has this:
As used herein, the term “particle size” refers to particle diameter. Particle size and particle size distribution can be measured using, for example, a Hyac/Royco particle size analyzer, a Malvern particle size analyzer, a Beckman Coulter laser diffraction particle size analyzer, or a Shimadzu laser diffraction particle size analyzer. As used herein, the term “diameter” relates to a volumetric measurement based on an approximate spherical shape of a particle. In addition to encompassing free base clozapine particles of a given size, the present invention is also directed to formulations and solid oral dosage forms wherein the distribution of particle sizes of free base clozapine and the excipients are controlled. As used herein, a “distribution” refers to the number or concentration (i.e., percentage) of particles having a certain size, or range of sizes, within a given lot, batch, or solid oral dosage form of the present invention.
As used herein, “volume mean diameter,” when used in reference to the size of particles for use with the present invention, refers to the value of the volume moment mean as represented by D[4,3]. This value indicates the central point of frequency around which the distribution of surface area or volume rotates.
As used herein, the “median” particle size is synonymous with the “particle size D50,” in microns. For example, for the five particle values listed above, the median diameter, or particle size D50, would be 20 μm.
As used herein, “particle size D90,” refers a mixture wherein about 90% of all measurable particles have a diameter equal to or less than the value D90, in microns, and 10% of the measurable particles have a diameter greater than the value of D90, in microns.
The particle size and particle size distribution of the various excipient used in the particulate mixture of the present invention are listed in Table 2.

Regarding `COC(=O)[C@H](Cc1ccccc1)NC(=O)[C@@H](N)CC(=O)O` [Aspartame] (H-Asp-Phe-OMe), the Compaction index in data set [1] worked out at 10 kp/500 mg/1000 lbs.

In data set [2], `CN1CCN(C2=Nc3cc(Cl)ccc3Nc3ccccc32)CC1` [Free base clozapine, 8-chloro-11-(4-methyl-1-piperazinyl)-5H-dibenzo[b,e][1,4]diazepine, reference compound] gave a D50 of 19 μm, a D10 of 5 μm, a D90 of 51 μm and a VMD of 25 μm.

As for `OC[C@@H](O)[C@@H](O)[C@H](O)[C@H](O)CO` [Mannitol], the Compaction index in data set [1] is on record as 9 kp/500 mg/1000 lbs. In addition, in data set [2], the D50 stood at 221 μm, the D10 amounted to 81 μm, the D90 stood at 507 μm and the VMD is 263 μm.

As for `OC[C@@H](O)[C@H](O)[C@@H](O)CO` [Xylitol], in data set [1], the Compaction index is listed as 0.7 kp/500 mg/1000 lbs. Further, in data set [2], the D50 is on record as 167 μm, the D10 worked out at 86 μm, the D90 was determined as 310 μm and the VMD is given as 184 μm.
